Bridge positions count the residues as written; N and C are the ends. Square brackets hold non-standard residues; d marks the D form. Peptide text beside a SMILES is read from it. dPhe(3,4-F2) = N[C@H](Cc1ccc(F)c(F)c1)C(=O)O; dPhe(3-Cl) = N[C@H](Cc1cccc(Cl)c1)C(=O)O; dPhe(4-Me) = Cc1ccc(C[C@@H](N)C(=O)O)cc1; Nle = CCCC[C@H](N)C(=O)O; Orn = NCCC[C@H](N)C(=O)O; Dab = NCC[C@H](N)C(=O)O

In this test the target is hMC1r (Homo sapiens, UniProt Q01726). Briefly: Assay for agonist activity: cAMP accumulation in HBL melanoma cells. Type of test: cell-based. The arrangement: endogenous in cells; host or cells: HBL human melanoma cells. The settings on record: HBL, compared to NDP-α-MSH as 100%, read-out: MC-1 Emax (average; cAMP HBL). The protocol: 8.2 Assay for Agonist Activity.
Chain of hMC1r (Q01726 whole entry): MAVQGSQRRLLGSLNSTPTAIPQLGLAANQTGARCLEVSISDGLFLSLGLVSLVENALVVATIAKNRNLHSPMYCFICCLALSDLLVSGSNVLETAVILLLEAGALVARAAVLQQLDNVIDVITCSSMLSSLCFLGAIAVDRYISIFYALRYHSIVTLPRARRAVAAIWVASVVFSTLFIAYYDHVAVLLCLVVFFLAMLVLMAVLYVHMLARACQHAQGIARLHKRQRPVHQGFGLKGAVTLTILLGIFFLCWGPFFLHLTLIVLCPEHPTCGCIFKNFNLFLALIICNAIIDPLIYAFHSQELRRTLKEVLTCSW
Confluent HBL cells that express hMC1r or HEK-293 cells that express recombinant hMC4r were detached from culture plates by incubation in enzyme-free cell dissociation buffer. Dispersed cells were suspended in Earle's Balanced Salt Solution containing 10 mM HEPES (pH 7.5), 1 mM MgCl2, 1 mM glutamine, 0.5% albumin and 0.3 mM 3-isobutyl-1-methyl-xanthine (IBMX), a phosphodiesterase inhibitor. The cells were plated in 96-well plates at a density of 0.4×10^5 cells per well for HBL cells and 0.5×10^5 cells per well for HEK-293 cells and pre-incubated for 10 minutes. Cells were exposed for 15 minutes at 37° C. to peptides of the present invention dissolved in DMSO (final DMSO concentration of 1%) at a concentration range of 0.05-5000 nM in a total assay volume of 200 μL. […] Data analysis was performed by nonlinear regression analysis with Graph-Pad Prism® software.
All results are expressed in nM except for Emax values, which are percentage values. Peptides with the captioned primary sequence were synthesized and purified as described in Section 7 above, with the resulting peptide having the structure depicted.
Background: Cyclic AMP is a second messenger, typically raised through Gs and lowered through Gi signalling.
As to `CCCC[C@H](NC(C)=O)C(=O)N[C@H]1CNC(=O)CCC(=O)NC[C@@H](C(=O)N[C@@H](Cc2c[nH]c3ccccc23)C(N)=O)NC(=O)[C@H](CCCNC(=N)N)NC(=O)[C@@H](Cc2ccccc2)NC(=O)[C@H](Cc2c[nH]cn2)NC1=O` [Example 9.28, Ac-Nle-cyclo(Dap-His-D-Phe-Arg-Dap)-Trp-NH2], the maximal response (Emax) is 70%.
In the case of `CCCC[C@H](NC(C)=O)C(=O)N[C@H]1CCC(=O)NCC[C@@H](C(N)=O)NC(=O)[C@H](C)NC(=O)[C@@H](Cc2ccccc2)NC(=O)[C@H](Cc2c[nH]cn2)NC1=O` [Example 9.33, Ac-Nle-cyclo(Glu-His-D-Phe-Ala-Dab)-NH2], the Emax worked out at 73%.
As to `CCCC[C@H](NC(C)=O)C(=O)N[C@H]1CCC(=O)NCC[C@@H](C(N)=O)NC(=O)[C@H](CCCNC(=N)N)NC(=O)[C@@H](Cc2ccc(F)c(F)c2)NC(=O)[C@H](CCCN)NC1=O` [Example 9.62, Ac-Nle-cyclo(Glu-Orn-D-Phe(3,4-F)-Arg-Dab)-NH2] (Ac-[Nle]E[Orn][dPhe(3,4-F2)]R[Dab]-NH2; lactam 2-6), the Emax is 97%.
Take `CCCC[C@H](NC(C)=O)C(=O)N[C@H]1CCC(=O)NCC[C@@H](C(=O)N[C@@H](Cc2c[nH]c3ccccc23)C(N)=O)NC(=O)CNC(=O)[C@@H](Cc2ccccc2)NC(=O)[C@H](Cc2c[nH]cn2)NC1=O` [Example 9.34, Ac-Nle-cyclo(Glu-His-D-Phe-Gly-Dab)-Trp-NH2] (Ac-[Nle]EH[dF]G[Dab]W-NH2; lactam 2-6): the Emax amounted to 59%.
Next, `CCCCCC(=O)N[C@H]1CCC(=O)NCC[C@@H](C(=O)N[C@@H](Cc2c[nH]c3ccccc23)C(N)=O)NC(=O)[C@H](CCCNC(=N)N)NC(=O)[C@@H](Cc2ccccc2)NC(=O)[C@H](Cc2c[nH]cn2)NC1=O` [Example 9.17, CH3—(CH2)4—C(═O)-cyclo(Glu-His-D-Phe-Arg-Dab)-Trp-NH2]: 90%; `CCCC[C@H](NC(C)=O)C(=O)N[C@H]1CCNC(=O)CCC(=O)NCC[C@@H](C(=O)N[C@@H](Cc2c[nH]c3ccccc23)C(N)=O)NC(=O)[C@H](CCCNC(=N)N)NC(=O)[C@@H](Cc2ccccc2)NC(=O)[C@H](Cc2c[nH]cn2)NC1=O` [Example 9.27, Ac-Nle-cyclo(Dab-His-D-Phe-Arg-Dab)-Trp-NH2]: 92%.
As for `CCCCC(=O)N[C@H]1CCC(=O)NCC[C@@H](C(=O)N[C@@H](Cc2c[nH]c3ccccc23)C(N)=O)NC(=O)[C@H](CCCNC(=N)N)NC(=O)[C@@H](Cc2ccccc2)NC(=O)[C@H](Cc2c[nH]cn2)NC1=O` [Example 9.16, CH3—(CH2)3—C(═O)-cyclo(Glu-His-D-Phe-Arg-Dab)-Trp-NH2], the Emax was found to be 89%.
As for `CCCC[C@H](NC(C)=O)C(=O)N[C@H]1CCC(=O)NCC[C@@H](C(=O)N[C@@H](Cc2c[nH]c3ccccc23)C(N)=O)NC(=O)[C@H](CCCNC(=N)N)NC(=O)[C@@H](Cc2ccccc2)NC(=O)[C@H]2CCCN2C1=O` [Example 9.66, Ac-Nle-cyclo(Glu-Pro-D-Phe-Arg-Dab)-Trp-NH2], the Emax was found to be 97%.
`CCCC[C@H](NC(C)=O)C(=O)N[C@H]1CCC(=O)NCC[C@@H](C(=O)N[C@@H](Cc2c[nH]c3ccccc23)C(N)=O)NC(=O)[C@H](CCCNC(=N)N)NC(=O)[C@@H](Cc2ccccc2)NC(=O)[C@H](CCCN)NC1=O` [Example 9.42, Ac-Nle-cyclo(Glu-Orn-D-Phe-Arg-Dab)-Trp-NH2]: the Emax was 109%.
Regarding `CCCC[C@H](NC(C)=O)C(=O)N[C@H]1CCC(=O)NCC[C@@H](C(=O)N[C@@H](Cc2c[nH]c3ccccc23)C(N)=O)NC(=O)[C@H](C)NC(=O)[C@@H](Cc2ccccc2)NC(=O)[C@H](Cc2c[nH]cn2)NC1=O` [Example 9.48, Ac-Nle-cyclo(Glu-His-D-Phe-Ala-Dab)-Trp-NH2], the Emax was determined as 72%.
As for `CCCC[C@H](NC(C)=O)C(=O)N[C@H]1CCC(=O)NCC[C@@H](C(N)=O)NC(=O)[C@H](CCCNC(=N)N)NC(=O)[C@@H](Cc2ccccc2)NC(=O)[C@@H]2CCCN2C1=O` [Example 9.65, Ac-Nle-cyclo(Glu-Pro-D-Phe-Arg-Dab)-NH2], the Emax is 102%.
For `CCCC[C@H](NC(C)=O)C(=O)N[C@H]1CCC(=O)NCC[C@@H](C(=O)N[C@@H](Cc2c[nH]c3ccccc23)C(N)=O)NC(=O)[C@H](CCCNC(=N)N)NC(=O)[C@@H](Cc2ccccc2)NC(=O)[C@H](CCN)NC1=O` [Example 9.41, Ac-Nle-cyclo(Glu-Dab-D-Phe-Arg-Dab)-Trp-NH2], the maximal effect (Emax) was found to be 108%.
As for `N=C(N)NCCC[C@@H]1NC(=O)[C@@H](Cc2ccccc2)NC(=O)[C@H](Cc2c[nH]cn2)NC(=O)[C@@H](NC(=O)CC2CCCCC2)CCC(=O)NCC[C@@H](C(=O)N[C@@H](Cc2c[nH]c3ccccc23)C(N)=O)NC1=O` [Example 9.22, cyclohexyl acetyl-cyclo(Glu-His-D-Phe-Arg-Dab)-Trp-NH2], the Emax worked out at 85%.
As to `N=C(N)NCCC[C@@H]1NC(=O)[C@@H](Cc2ccccc2)NC(=O)[C@H](Cc2c[nH]cn2)NC(=O)[C@@H](NC(=O)C2CCCCC2)CCC(=O)NCC[C@@H](C(=O)N[C@@H](Cc2c[nH]c3ccccc23)C(N)=O)NC1=O` [Example 9.20, cyclo-hexanoyl-cyclo(Glu-His-D-Phe-Arg-Dab)-Trp-NH2], the Emax came out at 79%.
Next, `CCCC[C@H](NC(C)=O)C(=O)N[C@H]1CCC(=O)NCC[C@@H](C(N)=O)NC(=O)[C@H](CCCNC(=N)N)NC(=O)[C@@H](Cc2ccc(C)cc2)NC(=O)[C@H](CCCN)NC1=O` [Example 9.63, Ac-Nle-cyclo(Glu-Orn-D-Phe(4-Me)-Arg-Dab)-NH2] (Ac-[Nle]E[Orn][dPhe(4-Me)]R[Dab]-NH2; lactam 2-6): 96%; `N=C(N)NCCC[C@@H]1NC(=O)[C@@H](Cc2ccccc2)NC(=O)[C@H](Cc2c[nH]cn2)NC(=O)[C@@H](NC(=O)Cc2ccccc2)CCC(=O)NCC[C@@H](C(=O)N[C@@H](Cc2c[nH]c3ccccc23)C(N)=O)NC1=O` [Example 9.23, phenyl acetyl-cyclo(Glu-His-D-Phe-Arg-Dab)-Trp-NH2]: 82%; `CCCC[C@H](NC(C)=O)C(=O)N[C@H]1CCC(=O)NCC[C@@H](C(=O)N[C@@H](Cc2c[nH]c3ccccc23)C(N)=O)NC(=O)[C@H](CCCNC(=N)N)NC(=O)[C@@H](Cc2ccccc2)NC(=O)[C@H](C)NC1=O` [Example 9.36, Ac-Nle-cyclo(Glu-Ala-D-Phe-Arg-Dab)-Trp-NH2]: 86%.
As for `CCCC[C@H](NC(C)=O)C(=O)N[C@H]1CCC(=O)NCC[C@@H](C(=O)N[C@@H](Cc2c[nH]c3ccccc23)C(N)=O)NC(=O)[C@H](CCCNC(=N)N)NC(=O)[C@@H](Cc2ccccc2)NC(=O)[C@H](CCCNC(=N)N)NC1=O` [Example 9.37, Ac-Nle-cyclo(Glu-Arg-D-Phe-Arg-Dab)-Trp-NH2], the Emax was 100%.
Next, `CC(=O)N[C@@H](Cc1ccccc1)C(=O)N[C@H]1CCC(=O)NCC[C@@H](C(=O)N[C@@H](Cc2c[nH]c3ccccc23)C(N)=O)NC(=O)[C@H](CCCNC(=N)N)NC(=O)[C@@H](Cc2ccccc2)NC(=O)[C@H](Cc2c[nH]cn2)NC1=O` [Example 9.13, Ac-Phe-cyclo(Glu-His-D-Phe-Arg-Dab)-Trp-NH2]: 75%; `CCCC[C@H](NC(C)=O)C(=O)N[C@H]1CCC(=O)NCC[C@@H](C(N)=O)NC(=O)[C@H](CCCNC(=N)N)NC(=O)[C@@H](Cc2ccc(OC)cc2)NC(=O)[C@H](CCCN)NC1=O` [Example 9.64, Ac-Nle-cyclo(Glu-Orn-D-Phe(4-OMe)-Arg-Dab)-NH2] (Ac-[Nle]E[Orn][dY](Me)R[Dab]-NH2; lactam 2-6): 99%; `CCCC[C@H](NC(C)=O)C(=O)N[C@H]1CCC(=O)NCC[C@@H](C(=O)N[C@@H](Cc2c[nH]c3ccccc23)C(N)=O)NC(=O)[C@H](CCCNC(=N)N)NC(=O)[C@@H](Cc2ccccc2)NC(=O)[C@H](CCCNC(N)=O)NC1=O` [Example 9.38, Ac-Nle-cyclo(Glu-Cit-D-Phe-Arg-Dab)-Trp-NH2]: 97%.
With `CCCC[C@H](NC(C)=O)C(=O)N[C@H]1CCC(=O)NCC[C@@H](C(=O)N[C@@H](Cc2cccc3ccccc23)C(N)=O)NC(=O)[C@H](CCCNC(=N)N)NC(=O)[C@@H](Cc2ccccc2)NC(=O)[C@H](Cc2c[nH]cn2)NC1=O` [Example 9.30, Ac-Nle-cyclo(Glu-His-D-Phe-Arg-Dab)-Nal 1-NH2], the Emax stood at 72%.
The same measure for `CCCC[C@H](NC(C)=O)C(=O)N[C@H]1CCC(=O)NCC[C@@H](C(=O)N[C@@H](Cc2c[nH]c3ccccc23)C(N)=O)NC(=O)[C@H](CCCNC(=N)N)NC(=O)[C@@H](Cc2ccccc2)NC(=O)[C@H](CCCCN)NC1=O` [Example 9.40, Ac-Nle-cyclo(Glu-Lys-D-Phe-Arg-Dab)-Trp-NH2]: 108%; for `CCCC[C@H](NC(C)=O)C(=O)N[C@H]1CCC(=O)NCC[C@@H](C(N)=O)NC(=O)[C@@H](Cc2ccccc2)NC(=O)[C@H](Cc2c[nH]cn2)NC1=O` [Example 9.46, Ac-Nle-cyclo(Glu-His-D-Phe-Dab)-NH2] (Ac-[Nle]EH[dF][Dab]-NH2; lactam 2-5): 51%; for `CCCC[C@H](NC(C)=O)C(=O)N[C@H]1CCC(=O)NCC[C@@H](C(N)=O)NC(=O)[C@H](CCCNC(=N)N)NC(=O)[C@@H](Cc2cccc(Cl)c2)NC(=O)[C@H](CCCN)NC1=O` [Example 9.58, Ac-Nle-cyclo(Glu-Orn-D-Phe(3-Cl)-Arg-Dab)-NH2] (Ac-[Nle]E[Orn][dPhe(3-Cl)]R[Dab]-NH2; lactam 2-6): 86%.

In general, Emax refers to the size of the effect at its maximum, as opposed to the concentration needed.

(Values after patent publication US20220088146A1, “Melanocortin Receptor-Specific Peptide Formulations and Methods for Gastrointestinal Tract-Specific Delivery” (Palatin Technologies, Inc., priority 2018, published 2022).)
